Key:
ACSS2 = ACSS2 (Homo sapiens (Human), UniProt Q9NR19); test: Cellular assay of 14C acetate incorporation into fatty acids (IC50 ACSS2 cellular lipids); format: cell-based; details: HCT-15 cells
Procedure: Cellular Assay of ^14C Acetate Incorporation into Fatty Acids (IC50 ACSS2 Cellular Lipids)
This protocol describes a cellular assay capable to quantify endogenous fatty acid synthesis activity in the human HCT-15 cancer cell line following the incorporation of extracellularly administered radiolabeled ^14C acetate with a scintillation proximity based read out on extracted fatty acids.
HCT-15 cells were grown in RPMI 1640 (Gibco) supplemented with 2 mM glutamine, 1 mM sodium pyruvate 10 mM HEPES and 10% FCS (heat-inactivated) passaged every 2-3 days to remain a subconfluent, vital culture. A working cell bank was prepared with each aliquot containing 1×10^7 viable cells. After thawing, these cells are dilute immediately 1:20 in pre-warmed (37° C.) culture medium. Cells are collected by centrifugation at 200×g for 5 min, and the supernatant is replaced by 30 mL of fresh culture medium per aliquot to obtain a cell suspension containing 350000 cells/ml. From this cell suspension 100 μL are dispersed into each well of a collagen coated 96 well plate, (black, clear bottom, PS, F-bottom, Greiner) and culture for 24 h (37° C., 5% CO2). After incubation the culture medium is removed and the wells are washed once with 100 μL PBS++(supplemented with Mg^2+/Ca^2+, Gibco) and 50 μL assay medium (RPMI 1640+10 mM HEPES) are added to each well. Compounds serial dilutions are prepared from 10 mM stock solutions in DMSO using a fixed dilution factor (usually 1:3). After preparation of the dilution series in DMSO, the individual dilutions are further diluted in the assay medium. This working dilution is prepared such, that the concentration is 7× of the final concentration in the assay. The maximal DMSO concentration in the final assay is 0.1%.
To each well 10 μL compound working dilution or DMSO blank are added and the cells are cultured for 2 h (37° C., 5% CO2). Then 10 μL AlamarBlue reagent (Invitrogen) containing 14 μCi/mL 14C-acetate (Perkin Elmer) are added to each well (70 μl total volume) and cells are again cultured for 2 h. Cell viability is verified by measuring the AlamarBlue fluorescence (Tecan Safire, ex: 544 nm/em: 590 nm). After incubation the culture medium is removed and the wells are carefully washed once with cold 100 μL PBS++. For cell lysis and fatty acid recovery 50 μl 0.1 M NaOH and 0.1% Triton-X100 are added per well. The plate is sealed with PlateLoc (clear peelable heat seal, Agilent) and incubate at 70° C. for 16-24 h. After cooling to room temperature, the plates are centrifuged for 1 min at 1000 rpm and the plate seals are removed. For acidification 150 μL 0.1 M HCl are added to each well, mixed and 150 μL of the mixture are transferred into a 96 well FlashPlate (Perkin Elmer). The plates are sealed with TopSeal-A (Perkin Elmer). To allow for the fatty acid binding to the well surfaces the plates are incubate for 4 h at 70° C. After cooling to room temperature, the plates are centrifuged for 1 min at 1000 rpm and stored for 0.5-2h at room temperature in the dark. Radioactivity from ^14C incorporation into fatty acids in the wells is measured as CPM count in a MicroBeta scintillation counter (Perkin Elmer).

CYP3A4 = test: CYP-induction assay in HepaRG cells, QuantiGene Plex 2.0 (CYP3A4 induction); format: in vitro ADME, human; details: 48 hrs; for CYP3A4 (in parentheses: lowest concentration causing at least 2-fold induction): value in parentheses; for CYP3A4 (significant induction above 20% threshold): value outside parentheses
Description: CYP-Induction Assay in HepaRG Cells with the QuantiGene Plex 2.0 Reagent System (Branched DNA-Assay) from Affymetrix (Thermo Scientific) (CYP3A4 Induction)
The QuantiGene Plex 2.0 assay combines branched DNA (bDNA) signal amplification and multi-analyte profiling beads (xMAP®) technologies to enable the detection and quantitation of multiple RNA targets simultaneously. The xMAP system combines a flow cytometer, fluorescent-dyed microspheres (beads), lasers and digital signal processing to allow multiplexing of up to 100 unique assays within a single sample.
Human HepaRG cells (Thermo Scientific) were thawed and seeded with a density of 0.72E6 cells/ml in a collagen precoated 96-well plate. After an adaption phase of 3 days in first Williams E medium (Gibco+thawing supplement, Thermo Scientific) the medium was changed to second Williams E medium (Gibco+tox supplement, Thermo Scientific). Daily treatment with test substances at 4 concentrations, started between day 3-10 of culturing, was performed with an incubation time of 48 hrs. After 48 hrs the cells were lysed with 100 μl/well (Lysis mixture, Affymetrix diluted 1:2 with Williams E medium, Gibco and addition of 5 μl proteinase K/ml of the mixture, Affymetrix). The QuantiGene Plex 2.0 assay utilizes fluorescent capture beads to trap specific RNA molecules. In order to hybridize and span contiguous sequences of the target RNA, the probe set containing 3 types of synthetic probes (Capture Extenders, Label Extenders, and Blockers) was incubated with samples and beads at 600 rpm at 54° C. for 16-20 h. Signal amplification was mediated by DNA amplification molecules that hybridize to the tails of the label extenders (incubation of the over-night hybridized beads with pre-amplifier and amplifier reagent for 1 h at 50° C. each, washing steps in between). Each amplification unit contains multiple hybridization sites for biotinylated label probes (incubation with label probe reagent for 1 h at 50° C., washing step in between) that bind Streptavidin-conjugated R-Phycoerythrin (SAPE, last incubation step for 30 min at room temp.). After the SAPE incubation, a last washing step with SAPE buffer was performed (120 μl left in wells). The resulting fluorescence signal associated with individual capture beads was detected on a Luminex 200 flow cytometer (parameters: volume 100 μl, timeout 45 sec., DD-gate 5,000-25,000, bead events 50). Signals were reported as median fluorescence intensity (MFI) and were proportional to the number of target RNA molecules present in the sample.
For analysis of results, calculation of mean values of 3 technical replicates as well as the standard deviations (% SD up to 30% acceptable) were carried out. The mean value of the blank was subtracted from the mean value of the sample. As the genes HPRT1 and TFRC are housekeeping genes, they are used to normalize sample mean values [(Sample Mean−Blank)/Housekeeper (Mean−Blank)=normalized value (HPRT1 or TFRC)]. Calculation of the fold-change was performed by dividing normalized sample values by the normalized mean values of the DMSO controls [(Sample Mean−Blank)/Housekeeper (Mean−Blank)=fc; (DMSO Mean−Blank)/Housekeeper (Mean−Blank)].
Experimental data of the compounds shown in Table 1 in the CYP3A4 assay are shown in Table 2 below and given in μM (significant induction above 20% threshold; in parentheses: lowest concentration causing at least 2-fold induction): […]

Sequence of ACSS2 (Q9NR19 whole entry): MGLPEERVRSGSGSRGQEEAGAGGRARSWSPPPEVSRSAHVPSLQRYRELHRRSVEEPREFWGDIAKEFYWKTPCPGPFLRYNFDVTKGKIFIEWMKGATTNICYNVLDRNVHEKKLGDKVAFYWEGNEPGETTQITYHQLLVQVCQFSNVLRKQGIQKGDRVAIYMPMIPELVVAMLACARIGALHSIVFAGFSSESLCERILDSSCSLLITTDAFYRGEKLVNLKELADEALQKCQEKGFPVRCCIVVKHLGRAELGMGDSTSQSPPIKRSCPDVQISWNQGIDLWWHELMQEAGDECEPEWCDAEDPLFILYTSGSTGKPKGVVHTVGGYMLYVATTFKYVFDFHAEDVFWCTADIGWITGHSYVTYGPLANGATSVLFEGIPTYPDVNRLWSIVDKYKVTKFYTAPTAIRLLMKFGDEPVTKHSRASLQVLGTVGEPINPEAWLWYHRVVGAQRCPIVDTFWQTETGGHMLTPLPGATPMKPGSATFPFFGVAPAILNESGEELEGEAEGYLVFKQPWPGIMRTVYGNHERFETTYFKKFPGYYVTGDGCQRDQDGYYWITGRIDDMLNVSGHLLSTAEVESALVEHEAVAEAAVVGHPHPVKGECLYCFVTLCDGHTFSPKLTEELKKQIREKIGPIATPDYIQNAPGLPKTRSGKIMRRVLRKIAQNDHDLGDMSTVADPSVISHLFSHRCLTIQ

SMILES	IC50 (ACSS2) [nM]	CYP3A4 (in parentheses: lowest concentration causing at least 2-fold induction) (CYP3A4) [µM]	CYP3A4 (significant induction above 20% threshold) (CYP3A4) [µM]
CCc1c(C(O)(c2ccccc2)c2ccccc2)nc2cc(Cl)c(-c3nnn[nH]3)cn12 [Compound 9, [7-Chloro-3-ethyl-6-(1H-tetrazol-5-yl)-imidazo[1,2-a]pyridin-2-yl]-diphenyl-methanol]	1 to 10	–	–
CCn1c(C(O)(c2cccs2)c2cccs2)nc2nc(OC)c(-c3nnn[nH]3)cc21 [Compound 38, [1-ethyl-5-methoxy-6-(1H-1,2,3,4-tetrazol-5-yl)-1H-imidazo[4,5-b]pyridin-2-yl]bis(thiophen-2-yl)methanol]	10 to 100	–	–
CCc1c(C(O)(c2ccccc2)c2ccccc2)nc2ccc(-c3nnn[nH]3)cn12 [Compound 4, [3-Ethyl-6-(1 H-tetrazol-5-yl)-imidazo[1,2-a]pyridin-2-yl]-diphenyl-methanol]	10 to 100	50	2.2
CCc1c(C(O)(c2ccccc2)c2ccccc2)nc2cc(F)c(-c3nnn[nH]3)cn12 [Compound 3, [3-Ethyl-7-fluoro-6-(1H-tetrazol-5-yl)-imidazo[1,2-a]pyridin-2-yl]-diphenyl-methanol]	10 to 100	–	–
CCc1c(C(O)(c2ccccc2F)c2ccccc2F)nc2cc(OC)c(-c3nnn[nH]3)cn12 [Compound 6, [3-Ethyl-7-methoxy-6-(1H-tetrazol-5-yl)-imidazo[1,2-a]pyridin-2-yl]-bis-(2-fluoro-phenyl)-methanol]	1 to 10	–	–
CCc1c(C(O)(c2ccccc2)c2ccccc2)nc2cc(OC)c(-c3nnn[nH]3)cn12 [Compound 2, [3-Ethyl-7-methoxy-6-(1H-tetrazol-5-yl)-imidazo[1,2-a]pyridin-2-yl]-diphenyl-methanol]	1 to 10	5	2.3
CCn1c(C(O)(c2ccccc2)c2ccccc2)nc2nc(C)c(-c3nnn[nH]3)cc21 [Compound 62, [1-ethyl-5-methyl-6-(1H-1,2,3,4-tetrazol-5-yl)-1H-imidazo[4,5-b]pyridin-2-yl]diphenylmethanol]	100 to 10000	–	–
CCn1c(C(O)(c2ccccc2)c2ccccc2)nc2nc(Cl)c(-c3nnn[nH]3)cc21 [Compound 51, [5-chloro-1-ethyl-6-(1H-1,2,3,4-tetrazol-5-yl)-1H-imidazo[4,5-b]pyridin-2-yl]diphenylmethanol]	10 to 100	50	3.1
CCc1c(C(O)(c2ccccc2F)c2ccccc2F)nn2cc(OC)c(-c3nnn[nH]3)cc12 [Compound 19, [3-Ethyl-6-methoxy-5-(1H-tetrazol-5-yl)-pyrazolo[1,5-a]pyridin-2-yl]-bis-(2-fluoro-phenyl)-methanol]	1 to 10	–	–
CCn1c(C(O)(c2ccccc2)c2ccccc2)nc2ncc(-c3nnn[nH]3)cc21 [Compound 60, [1-ethyl-6-(1H-1,2,3,4-tetrazol-5-yl)-1H-imidazo[4,5-b]pyridin-2-yl]diphenylmethanol]	100 to 10000	–	–
CCc1c(C(O)(c2ccccc2)c2ccccn2)nc2cc(OC)c(-c3nnn[nH]3)cn12 (single isomer, unassigned) [Compound 11, [3-Ethyl-7-methoxy-6-(1H-tetrazol-5-yl)-imidazo[1,2-a]pyridin-2-yl]-phenyl-pyridin-2-yl-methanol]	1 to 10	–	–
CCc1c(C(O)(c2ccccc2F)c2ccccc2F)nc2cc(Cl)c(-c3nnn[nH]3)cn12 [Compound 5, [7-Chloro-3-ethyl-6-(1H-tetrazol-5-yl)-imidazo[1,2-a]pyridin-2-yl]-bis-(2-fluoro-phenyl)-methanol]	10 to 100	–	–
CCn1c(C(O)(c2ccccc2)c2ncccn2)nc2nc(OC)c(-c3nnn[nH]3)cc21 (racemic) [Compound 37, [1-ethyl-5-methoxy-6-(1H-1,2,3,4-tetrazol-5-yl)-1H-imidazo[4,5-b]pyridin-2-yl](phenyl)(pyrimidin-2-yl)methanol]	1 to 10	–	–
COc1nc2nc(C(O)(c3ccccc3)c3ccccc3)n(CCO)c2cc1-c1nnn[nH]1 [Compound 34, 2-[2-(hydroxy-diphenylmethyl)-5-methoxy-6-(1H-1,2,3,4-tetrazol-5-yl)-1H-imidazo[4,5-b]pyridin-1-yl]ethan-1-ol]	10 to 100	–	–
CCn1c(C(O)(c2ccccc2)c2ccccn2)nc2nc(OC)c(-c3nnn[nH]3)cc21 (racemic) [Compound 50, [1-ethyl-5-methoxy-6-(1H-1,2,3,4-tetrazol-5-yl)-1H-imidazo[4,5-b]pyridin-2-yl](phenyl)(pyridin-2-yl)methanol]	0.01 to 1	–	–
CCc1c(C(O)(c2ccccc2)c2ccccc2)nn2cc(OC)c(-c3nnn[nH]3)cc12 [Compound 22, [3-Ethyl-6-methoxy-5-(1H-tetrazol-5-yl)-pyrazolo[1,5-a]pyridin-2-yl]-diphenyl-methanol]	1 to 10	–	–
CCn1c(C(O)(c2ccccc2F)c2ccccc2F)nc2nc(OC)c(-c3nnn[nH]3)cc21 [Compound 57, [1-ethyl-5-methoxy-6-(1H-1,2,3,4-tetrazol-5-yl)-1H-imidazo[4,5-b]pyridin-2-yl]bis(2-fluorophenyl)methanol]	0.01 to 1	–	–
CCn1c(C(O)(c2ccccc2)c2ccccn2)nc2nc(OC)c(-c3nnn[nH]3)cc21 (single isomer, unassigned) [Compound 40, [1-ethyl-5-methoxy-6-(1H-1,2,3,4-tetrazol-5-yl)-1H-imidazo[4,5-b]pyridin-2-yl](phenyl)(pyridin-2-yl)methanol]	1 to 10	5	6.8
CCn1c(C(O)(c2ccccc2)c2cccs2)nc2nc(OC)c(-c3nnn[nH]3)cc21 (racemic) [Compound 35, [1-ethyl-5-methoxy-6-(1H-1,2,3,4-tetrazol-5-yl)-1H-imidazo[4,5-b]pyridin-2-yl](phenyl)(thiophen-2-yl)methanol]	0.01 to 1	–	–

Source: patent US20240009175A9, “TETRAZOLE DERIVATIVES” (Merck Patent GmbH, priority 2020, published 2024)
